# Patent US10919889B2, “Chiral heterocyclic compound with hedgehog pathway antagonist activity, method and use thereof” (SUZHOU KINTOR PHARMACEUTICALS, INC., priority 2016, dated 2021)
# Like-named read-outs stand apart in the source and are kept apart here.
# Experiments:
# Format in all cases: in vitro ADME
# [1] = target: T1, CYP3A4 (Homo sapiens, UniProt P08684); assay: CYP liver enzyme inhibition experiment, CYP-3A4; conditions: human liver microsomes, pH 7.4, probe midazolam, test compound 10 μM, HLM, midazolam 1 μM, read-out: CYP-3A4 Inhibitory rate (%)
# T1 construct: containing HLM (0.2 mg/mL), phosphate buffer (100 mM, pH 7.4); from tissue; host or cells: liver microsomes (HLM)
# T1 sequence (P08684 whole entry): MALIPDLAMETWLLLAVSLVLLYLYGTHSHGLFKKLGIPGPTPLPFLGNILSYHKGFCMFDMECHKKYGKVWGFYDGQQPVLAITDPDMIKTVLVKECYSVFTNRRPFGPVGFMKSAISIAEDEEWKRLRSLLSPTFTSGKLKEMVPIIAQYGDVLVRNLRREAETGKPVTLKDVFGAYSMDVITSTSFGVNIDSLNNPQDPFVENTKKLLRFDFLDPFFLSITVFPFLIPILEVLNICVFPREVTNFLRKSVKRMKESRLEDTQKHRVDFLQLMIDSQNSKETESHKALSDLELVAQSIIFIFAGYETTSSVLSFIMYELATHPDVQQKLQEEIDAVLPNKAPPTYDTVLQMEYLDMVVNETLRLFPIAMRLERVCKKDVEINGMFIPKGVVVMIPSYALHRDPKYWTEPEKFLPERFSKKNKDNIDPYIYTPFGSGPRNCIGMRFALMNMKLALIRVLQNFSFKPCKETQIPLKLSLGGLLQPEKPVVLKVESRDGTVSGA
# Description: (§1) The five major CYP isozymes and their respective probe substrates were: CYP-1A2 (phenacetin, 30 μM), CYP-2C9 (toluenesulfonylurea, 100 μM), CYP-2C19 40 μM), CYP-2D6 (dextromethorphan, 5 μM) and CYP-3A4 (midazolam, 1 μM). All probes were used close to or below their KMS concentrations. The mixture (200 μL) was incubated in a 37° C. constant temperature water bath, containing HLM (0.2 mg/mL), phosphate buffer (100 mM, pH 7.4), NADPH […], test compound (10 μM) and the respective CYP probe substrate. Before the reaction with NADPH, the mixture was pre-incubated for 10 minutes to undergo inhibitor-enzyme interaction. After a specific period of time (10 minutes for CYP-1A2, 2D6 and 3A4; 30 minutes for CYP-2C9 and 2C19), the reaction was quenched by addition to 100 μL solution of appropriate amount of cold acetonitrile. Reaction system was centrifuged and injected into the LC-MS/MS to quantify the concentration of specific metabolite formed from the substrate and the CYP enzyme. Each test compound was tested at least three times independently. […]
# (§2) Before the start of the reaction with NADPH, the above mixture can be pre-incubated for about 10 minutes to allow inhibitor-enzyme interactions. […] The quenched mixture can be centrifuged, and aliquots of the mixture can then be analyzed by LC-MS/MS to quantify the concentrations of specific metabolic products for each CYP isozyme. […]
# [2] = target: T2, CYP2D6 (Homo sapiens, UniProt P10635); assay: CYP liver enzyme inhibition experiment, CYP-2D6; conditions: human liver microsomes, pH 7.4, probe dextromethorphan, test compound 10 μM, HLM, dextromethorphan 5 μM, read-out: CYP-2D6 Inhibitory rate (%)
# T2 construct: containing HLM (0.2 mg/mL), phosphate buffer (100 mM, pH 7.4); from tissue; host or cells: liver microsomes (HLM)
# T2 sequence (P10635 whole entry): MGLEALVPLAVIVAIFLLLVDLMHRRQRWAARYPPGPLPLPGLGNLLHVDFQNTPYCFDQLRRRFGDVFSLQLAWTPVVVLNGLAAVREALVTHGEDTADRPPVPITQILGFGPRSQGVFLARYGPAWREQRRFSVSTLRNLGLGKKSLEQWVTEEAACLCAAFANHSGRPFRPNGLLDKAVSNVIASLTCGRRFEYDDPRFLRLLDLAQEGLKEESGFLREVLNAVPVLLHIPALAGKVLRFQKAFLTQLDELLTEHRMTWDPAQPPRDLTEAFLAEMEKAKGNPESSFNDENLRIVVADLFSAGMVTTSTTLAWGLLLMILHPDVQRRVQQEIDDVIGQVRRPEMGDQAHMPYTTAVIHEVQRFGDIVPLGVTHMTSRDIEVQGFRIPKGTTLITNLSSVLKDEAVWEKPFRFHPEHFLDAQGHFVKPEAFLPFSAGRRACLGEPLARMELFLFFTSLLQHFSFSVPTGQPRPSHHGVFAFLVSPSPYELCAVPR
# Description: as §1, §2
# [3] = target: T3, CYP1A2 (Homo sapiens, UniProt P05177); assay: CYP liver enzyme inhibition experiment, CYP-1A2; conditions: human liver microsomes, pH 7.4, probe phenacetin, test compound 10 μM, HLM, phenacetin 30 μM, read-out: CYP-1A2 Inhibitory rate (%)
# T3 construct: containing HLM (0.2 mg/mL), phosphate buffer (100 mM, pH 7.4); from tissue; host or cells: liver microsomes (HLM)
# T3 sequence (P05177 1-516): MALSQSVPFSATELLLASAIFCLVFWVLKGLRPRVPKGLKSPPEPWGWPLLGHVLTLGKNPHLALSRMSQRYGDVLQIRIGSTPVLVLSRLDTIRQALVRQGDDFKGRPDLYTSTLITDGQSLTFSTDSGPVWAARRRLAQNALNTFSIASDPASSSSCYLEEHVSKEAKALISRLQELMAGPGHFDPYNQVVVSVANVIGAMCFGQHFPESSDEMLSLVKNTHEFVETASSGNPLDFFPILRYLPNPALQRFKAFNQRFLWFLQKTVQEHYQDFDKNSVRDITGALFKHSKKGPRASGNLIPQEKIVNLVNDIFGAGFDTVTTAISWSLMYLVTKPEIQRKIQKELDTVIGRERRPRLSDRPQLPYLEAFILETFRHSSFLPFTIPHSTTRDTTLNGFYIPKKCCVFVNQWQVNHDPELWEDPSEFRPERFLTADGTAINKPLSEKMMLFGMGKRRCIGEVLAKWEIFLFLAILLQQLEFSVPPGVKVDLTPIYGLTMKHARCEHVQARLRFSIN
# Description: as §1, §2
# [4] = target: T4, CYP2C9 (Homo sapiens, UniProt P11712); assay: CYP liver enzyme inhibition experiment, CYP-2C9; conditions: human liver microsomes
# T4 construct: containing HLM (0.2 mg/mL), phosphate buffer (100 mM, pH 7.4); from tissue; host or cells: liver microsomes (HLM)
# T4 sequence (P11712 whole entry): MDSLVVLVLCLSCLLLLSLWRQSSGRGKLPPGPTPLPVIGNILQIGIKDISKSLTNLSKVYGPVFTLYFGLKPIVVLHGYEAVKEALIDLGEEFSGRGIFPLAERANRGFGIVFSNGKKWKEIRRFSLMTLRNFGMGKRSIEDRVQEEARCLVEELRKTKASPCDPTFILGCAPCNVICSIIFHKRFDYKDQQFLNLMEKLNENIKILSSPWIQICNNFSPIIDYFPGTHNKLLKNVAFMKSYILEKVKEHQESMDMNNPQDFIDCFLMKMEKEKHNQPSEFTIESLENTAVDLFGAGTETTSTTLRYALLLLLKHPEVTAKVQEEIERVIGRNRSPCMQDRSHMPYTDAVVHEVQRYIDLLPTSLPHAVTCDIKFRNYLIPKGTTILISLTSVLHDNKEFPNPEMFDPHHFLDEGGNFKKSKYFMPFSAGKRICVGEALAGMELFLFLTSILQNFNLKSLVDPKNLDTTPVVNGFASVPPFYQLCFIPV
# Description: The five major CYP isozymes and their respective probe substrates were: CYP-1A2 (phenacetin, 30 μM), CYP-2C9 (toluenesulfonylurea, 100 μM), CYP-2C19 40 μM), CYP-2D6 (dextromethorphan, 5 μM) and CYP-3A4 (midazolam, 1 μM). All probes were used close to or below their KMS concentrations. The mixture (200 μL) was incubated in a 37° C. constant temperature water bath, containing HLM (0.2 mg/mL), phosphate buffer (100 mM, pH 7.4), NADPH […], test compound (10 μM) and the respective CYP probe substrate. Before the reaction with NADPH, the mixture was pre-incubated for 10 minutes to undergo inhibitor-enzyme interaction. After a specific period of time (10 minutes for CYP-1A2, 2D6 and 3A4; 30 minutes for CYP-2C9 and 2C19), the reaction was quenched by addition to 100 μL solution of appropriate amount of cold acetonitrile. Reaction system was centrifuged and injected into the LC-MS/MS to quantify the concentration of specific metabolite formed from the substrate and the CYP enzyme. Each test compound was tested at least three times independently.
# Five major CYP isozymes and their corresponding substrates are: CYP-1A2 (phenacetin, 30 μM), […], CYP2C19 (S-mephenytoin, 40 μM), CYP2D6 (dextromethorphan, 5 μM), and CYP3A4 (midazolam, 1 μM), respectively. All probe substrates were used at or lower than their KMS concentrations.
# A mixture (200 μL) can be incubated at 37° C. This mixture can comprise HLM (0.2 mg/mL), phosphate buffer (100 mM, pH at about 7.4), nicotinamide adenine dinucleotide phosphate (NADPH) […], a testing compound (compound B or compound B1), and the individual substrate for the CYP isozyme tested.
# Before the start of the reaction with NADPH, the above mixture can be pre-incubated for about 10 minutes to allow inhibitor-enzyme interactions. Then at specific time points (10 minutes time point for CYP-1A2, 2D6 and 3A4; 30 minutes time point for CYP-2C9 and 2C19), the reaction can be quenched by the addition of about 100 μL cold acetonitrile. The quenched mixture can be centrifuged, and aliquots of the mixture can then be analyzed by LC-MS/MS to quantify the concentrations of specific metabolic products for each CYP isozyme. For each testing compound, at least three independent assays can be completed.
# [5] = pH 7.4, probe tolbutamide (tolbutamide hydroxylation), Table 6, HLM, read-out: CYP-2C9 Inhibition (%)
# [6] = pH 7.4, probe toluenesulfonylurea (tolbutamide), 100 µM, at 10 μM, read-out: inhibitory activity against CYP-2C9
# [7] = pH 7.4, probe toluenesulfonylurea (tolbutamide), 100 µM, at a concentration of 10M, read-out: inhibitory rate to CYP-2C9
# [8] = pH 7.4, probe toluenesulfonylurea (tolbutamide), 100 µM, test compound 10 μM, HLM, read-out: CYP-2C9 Inhibitory rate (%)
"inhibition at 10 min, 10 µM [1] [%]","inhibition at 10 min, 10 µM [2] [%]","inhibition at 10 min, 10 µM [3] [%]","inhibition at 30 min, 10 µM [4, 5] [%]","inhibition at 30 min, 10 µM [4, 6] [%]","inhibition at 30 min, 10 µM [4, 7] [%]","inhibition at 30 min, 10 µM [4, 8] [%]",Compound
21 ± 4,30 ± 1.7,21 ± 1.3,52 ± 5.2,~52,> 50,52 ± 5.2,Cc1cnc(-c2cc(N3CCc4nc(N5CCC(O)CC5)ncc4C3C)ncc2Cl)c(C)c1 (racemic) [B]
20 ± 5.9,24 ± 3.5,22 ± 15,26 ± 6,~26,26,26 ± 6,"Cc1cnc(-c2cc(N3CCc4nc(N5CCC(O)CC5)ncc4[C@H]3C)ncc2Cl)c(C)c1 [Compound B1, (R)-1-(6-(5′-chloro-3,5-dimethyl-[2,4′-bipyridin]-2′-yl)-5-methyl-5,6,7,8-tetrahydropyrido[4,3-d]pyrimidin-2-yl)piperidin-4-ol]"
